How the values were obtained:
LOX IMVI = assay: NCI-60 SRB growth inhibition, one-dose and five-dose; assay type: cell-based; conditions: Homo sapiens
DU-145 = assay: as above; assay type: cell-based; conditions: Homo sapiens
HCT-116 = assay: as above; assay type: cell-based; conditions: Homo sapiens
SNB-19 = assay: as above; assay type: cell-based; conditions: Homo sapiens
RXF 393 = assay: as above; assay type: cell-based; conditions: Homo sapiens
NCI-H522 = assay: as above; assay type: cell-based; conditions: Homo sapiens
NCI-H460 = assay: as above; assay type: cell-based; conditions: Homo sapiens
UACC-62 = assay: as above; assay type: cell-based; conditions: Homo sapiens
COLO 205 = assay: as above; assay type: cell-based; conditions: Homo sapiens
IGROV1 = assay: as above; assay type: cell-based; conditions: Homo sapiens
ACHN = assay: as above; assay type: cell-based; conditions: Homo sapiens
T-47D = assay: as above; assay type: cell-based; conditions: Homo sapiens, T47D
A549/ATCC = assay: as above; assay type: cell-based; conditions: Homo sapiens
HS 578 T = assay: as above; assay type: cell-based; conditions: Homo sapiens
[1] = tested on: NCI 60-cell line panel (full panel); assay: NCI-60 SRB growth inhibition, full panel mean / MG-MID; assay type: cell-based, human
CAKI-1 = assay: NCI-60 SRB growth inhibition, one-dose and five-dose; assay type: cell-based; conditions: Homo sapiens
SF-268 = assay: as above; assay type: cell-based; conditions: Homo sapiens
NCI-H322M = assay: as above; assay type: cell-based; conditions: Homo sapiens
786-0 = assay: as above; assay type: cell-based; conditions: Homo sapiens
SK-MEL-5 = assay: as above; assay type: cell-based; conditions: Homo sapiens
SR = assay: as above; assay type: cell-based; conditions: Homo sapiens
SNB-75 = assay: as above; assay type: cell-based; conditions: Homo sapiens
HOP-62 = assay: as above; assay type: cell-based; conditions: Homo sapiens
A498 = assay: as above; assay type: cell-based; conditions: Homo sapiens
HCT-15 = assay: as above; assay type: cell-based; conditions: Homo sapiens
NCI-H226 = assay: as above; assay type: cell-based; conditions: Homo sapiens
BT-549 = assay: as above; assay type: cell-based; conditions: Homo sapiens
K-562 = assay: as above; assay type: cell-based; conditions: Homo sapiens
OVCAR-3 = assay: as above; assay type: cell-based; conditions: Homo sapiens
SF-295 = assay: as above; assay type: cell-based; conditions: Homo sapiens
SK-MEL-2 = assay: as above; assay type: cell-based; conditions: Homo sapiens
HT29 = assay: as above; assay type: cell-based; conditions: Homo sapiens
SF-539 = assay: as above; assay type: cell-based; conditions: Homo sapiens
HOP-92 = assay: as above; assay type: cell-based; conditions: Homo sapiens
MALME-3M = assay: as above; assay type: cell-based; conditions: Homo sapiens
OVCAR-4 = assay: as above; assay type: cell-based; conditions: Homo sapiens
MDA-MB-435 = assay: as above; assay type: cell-based; conditions: Homo sapiens
CCRF-CEM = assay: as above; assay type: cell-based; conditions: Homo sapiens
NCI/ADR-RES = assay: as above; assay type: cell-based; conditions: Homo sapiens
MCF7 = assay: as above; assay type: cell-based; conditions: Homo sapiens
HCC-2998 = assay: as above; assay type: cell-based; conditions: Homo sapiens
OVCAR-5 = assay: as above; assay type: cell-based; conditions: Homo sapiens
[2] = read-out: percent growth inhibition

`Cc1ccc(CNc2cccc(C(=O)/C=C/c3cccnc3)c2)cc1` [Compound 5a, (E)-1–(3-((4-methylbenzyl)amino)phenyl)-3-(pyridin-3-yl)prop-2-en-1-one] gave a GI50 (LOX IMVI) of 1.88 µM, an inhibition at 10 µM (LOX IMVI; [2]) of 195% and a GI50 (DU-145; DU-145) of 13.3 µM. The inhibition at 10 µM (DU-145; DU-145, read-out: percent growth inhibition) was 53.9%, the GI50 (HCT-116; HCT-116, HCT-116, five-dose screening) was 2.07 µM and the inhibition at 10 µM (HCT-116; HCT-116, read-out: percent growth inhibition) was 189%. For the same compound, the GI50 (SNB-19; SNB-19) was 14 µM, the inhibition at 10 µM (SNB-19; SNB-19, read-out: percent growth inhibition) was 34.9% and the GI50 (RXF 393; RXF 393) was 12.3 µM. The inhibition at 10 µM (RXF 393; RXF 393, read-out: percent growth inhibition) was 67.9%, the GI50 (NCI-H522; NCI-H522) was 13.8 µM and the inhibition at 10 µM (NCI-H522; NCI-H522, read-out: percent growth inhibition) was 134%. The GI50 (NCI-H460; NCI-H460) was 12.9 µM, the inhibition at 10 µM (NCI-H460; NCI-H460, read-out: percent growth inhibition) was 42% and the GI50 (UACC-62; UACC-62) was 11.1 µM. For the same compound, the inhibition at 10 µM (UACC-62; UACC-62, read-out: percent growth inhibition) was 58.4%, the GI50 (COLO 205; COLO 205) was 17.1 µM and the inhibition at 10 µM (COLO 205; COLO 205, read-out: percent growth inhibition) was 36.9%. It also gave a GI50 (IGROV1; IGROV-1) of 13.6 µM, an inhibition at 10 µM (IGROV1; IGROV-1, read-out: percent growth inhibition) of 44.5% and a GI50 (ACHN) of 14 µM. The inhibition at 10 µM (ACHN; [2]) was 130%, the GI50 (T-47D) was 9.84 µM and the inhibition at 10 µM (T-47D; [2]) was 105%. For the same compound, the GI50 (A549/ATCC; A549) was 17.3 µM, the inhibition at 10 µM (A549/ATCC; A549, read-out: percent growth inhibition) was 27.2% and the GI50 (HS 578 T) was 14.6 µM. The inhibition at 10 µM (HS 578 T; [2]) was 69.2%, the GI50 ([1]; Homo sapiens, 60 cell, read-out: Full panel GI50 mean) was 10.8 µM and the “Full panel Mean GI %” value ([1]; mean over NCI-60 panel, single dose 10 µM) was 82.76%. It also gave a GI50 (CAKI-1; CAKI-1) of 11.7 µM, an inhibition at 10 µM (CAKI-1; CAKI-1, read-out: percent growth inhibition) of 36.7% and a GI50 (SF-268; SF-268) of 12.8 µM. The inhibition at 10 µM (SF-268; SF-268, read-out: percent growth inhibition) was 38.2%, the GI50 (NCI-H322M) was 15.7 µM and the inhibition at 10 µM (NCI-H322M; [2]) was 19.6%. For the same compound, the GI50 (786-0; 786-0) was 15.5 µM, the inhibition at 10 µM (786-0; 786-0, read-out: percent growth inhibition) was 126% and the GI50 (SK-MEL-5; SK-MEL-5) was 8.96 µM. For the same compound, the inhibition at 10 µM (SK-MEL-5; SK-MEL-5, read-out: percent growth inhibition) was 74.9%, the GI50 (SR) was 2.82 µM and the inhibition at 10 µM (SR; [2]) was 85.6%. The GI50 (SNB-75; SNB-75) was 13.1 µM, the inhibition at 10 µM (SNB-75; SNB-75, read-out: percent growth inhibition) was 46.6% and the GI50 (HOP-62; HOP-62) was 15.6 µM. For the same compound, the inhibition at 10 µM (HOP-62; HOP-62, read-out: percent growth inhibition) was 15.1%, the GI50 (A498; A498) was 14.4 µM and the inhibition at 10 µM (A498; A498, read-out: percent growth inhibition) was 14.1%. It also gave a GI50 (HCT-15; HCT-15) of 4.15 µM, an inhibition at 10 µM (HCT-15; HCT-15, read-out: percent growth inhibition) of 156% and a GI50 (NCI-H226; NCI-H226) of 11.9 µM. It also gave an inhibition at 10 µM (NCI-H226; NCI-H226, read-out: percent growth inhibition) of 37.9%, a GI50 (BT-549; BT-549) of 10.4 µM and an inhibition at 10 µM (BT-549; BT-549, read-out: percent growth inhibition) of 111%. The GI50 (K-562; K562) was 3.09 µM, the inhibition at 10 µM (K-562; K562, read-out: percent growth inhibition) was 93.6% and the GI50 (OVCAR-3; OVCAR-3) was 7.19 µM. It also gave an inhibition at 10 µM (OVCAR-3; OVCAR-3, read-out: percent growth inhibition) of 84.8%, a GI50 (SF-295; SF-295) of 14 µM and an inhibition at 10 µM (SF-295; SF-295, read-out: percent growth inhibition) of 58.9%. For the same compound, the GI50 (SK-MEL-2; SK-MEL-2) was 14.3 µM, the inhibition at 10 µM (SK-MEL-2; SK-MEL-2, read-out: percent growth inhibition) was 35.9% and the GI50 (HT29; HT-29) was 14.1 µM. The inhibition at 10 µM (HT29; HT-29, read-out: percent growth inhibition) was 159%, the GI50 (SF-539; SF-539) was 15.6 µM and the inhibition at 10 µM (SF-539; SF-539, read-out: percent growth inhibition) was 152%. The GI50 (HOP-92; HOP-92) was 10.9 µM, the inhibition at 10 µM (HOP-92; HOP-92, read-out: percent growth inhibition) was 41.8% and the GI50 (MALME-3M) was 13.6 µM. It also gave an inhibition at 10 µM (MALME-3M; [2]) of 127%, a GI50 (OVCAR-4; OVCAR-4) of 6.81 µM and an inhibition at 10 µM (OVCAR-4; OVCAR-4, read-out: percent growth inhibition) of 63.8%. For the same compound, the GI50 (MDA-MB-435; MDA-MB-435) was 3.04 µM, the inhibition at 10 µM (MDA-MB-435; MDA-MB-435, read-out: percent growth inhibition) was 92% and the GI50 (CCRF-CEM) was 2.58 µM. It also gave an inhibition at 10 µM (CCRF-CEM; [2]) of 53.1%, a GI50 (NCI/ADR-RES) of 7.54 µM and a GI50 (MCF7; MCF7) of 2.79 µM. The inhibition at 10 µM (MCF7; MCF7, read-out: percent growth inhibition) was 148%, the GI50 (HCC-2998; HCC 2998) was 14.1 µM and the inhibition at 10 µM (HCC-2998; HCC 2998, read-out: percent growth inhibition) was 52.8%. It also gave a GI50 (OVCAR-5; OVCAR-5) of 15.6 µM and an inhibition at 10 µM (OVCAR-5; OVCAR-5, read-out: percent growth inhibition) of 52.2%.

Reference: article PMC11003488 (Journal of Enzyme Inhibition and Medicinal Chemistry, 2023)
